The values that follow are results of earlier work, collected in patent US4639511A, “Des-19-leucine-calcitonin analogs” (Armour Pharmaceutical Company, priority 1985, dated 1987).

Positions of bridges follow the written chain, without caps; N, C: chain ends. No end group written: not given here.

The conditions of series [1]: literature values, Monikawa et al.
The subject of series [2] is serum calcium concentration. The conditions noted are these: standard used in the rat assay.

For “(1,7-α-L-aminosuberic acid)eel calcitonin”, the hypocalcemic potency result in series [1] is listed as “about 3400 IU/mg”. For the substance “eel calcitonin (CSNLSTCVLGKLSQELHKLQTYPRTDVGAGTP-NH2; disulfide 1-7; ends not checked; UniProt P01262 1-32, looked up) [synthetic eel calcitonin, synthetic eel calcitonin from Monikawa et al]”, the hypocalcemic potency entry in series [1] is “around 4300 IU/mg”.

Turning to “salmon calcitonin [standard salmon calcitonin]”, the “potency of the standard salmon calcitonin, independently determined” value in series [2] is “greater than 4,000 IU/mg”.
